What all share (assay type): biochemical
The target of one assay is T1, rat cathepsin K (Rattus norvegicus, UniProt O35186).
T1 construct: The proform of cathepsin K was converted to mature cathepsin K by brief exposure to pH 4; made in house; host or cells: baculovirus; Trichoplusia ni High Five cells (virus raised in Sf-9)
T1 sequence (O35186 115-329): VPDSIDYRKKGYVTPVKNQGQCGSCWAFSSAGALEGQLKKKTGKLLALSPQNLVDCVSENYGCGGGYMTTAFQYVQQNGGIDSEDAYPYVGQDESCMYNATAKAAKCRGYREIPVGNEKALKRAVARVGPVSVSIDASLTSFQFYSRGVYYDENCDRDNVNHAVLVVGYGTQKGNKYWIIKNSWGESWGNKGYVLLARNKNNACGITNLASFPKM
As to the kind of experiment: cathepsin K inhibition assay, fluorogenic substrate Cbz-Phe-Arg-AMC, progress curve method. Conditions: Table 2; rat recombinant enzyme, 10 μM substrate; read-out: rCat K Ki. As to the method: (§1) All assays for cathepsin K were carried out with human and rat recombinant enzyme. Assays for cathepsins S & V were also carried out with human recombinant enzyme. Assays for human cathepsins B, H, and L were carried out with enzyme, purchased from Athens Research and Technology, Inc., prepared from human liver tissue. Standard assay conditions for the determination of kinetic constants used a fluorogenic peptide substrate, typically (5S,8S)-13-amino-5-benzyl-13-imino-3-methylene-N-(4-methyl-2-oxo-2H-chromen-7-yl)-6-oxo-1-phenyl-2-oxa-4,7,12-triazatridecane-8-carboxamide (Cbz-Phe-Arg-AMC), and were determined in 100 mM sodium acetate at pH 5.5 containing 10 mM dithiothreitol and 120 mM sodium chloride. A stock substrate solution of Cbz-Phe-Arg-AMC was prepared at a concentration of 50 mM in dimethyl sulfoxide. This substrate was diluted into the assay for a final substrate concentration of 10 μM in the rat cathepsin K, human cathepsin K, and human cathepsin B assays; a final substrate concentration of 5 μM in the human cathepsin L assay; and a final substrate concentration of 2 μM in the human cathepsin V assay.
All assays contained 10% dimethyl sulfoxide. […] All assays were conducted at 30° C. Product fluorescence (excitation at 360 nm; emission at 440 nm, (except cathepsin H which used excitation at 340 nm; emission at 420 nm)) was monitored with a PerSeptive Biosystems Cytofluor II fluorescence plate reader. Product progress curves were generated over 2.3 h monitoring the formation of 7-amino-4-methylcoumarin product (or β-naphthalamide for cathepsin H). […]
Protein Purification: Media (human and rat) were filtered through a Whatman 3 filter, and then loaded onto a 25 mL Poros HS II (26 mm×47 mm) cation exchange column equilibrated in 25 mM sodium acetate at pH 5.5 (equilibration buffer). The column was washed until the absorbance reached the baseline value, and then the protein was eluted with a linear gradient from 0-2 M sodium chloride in the equilibration buffer. Column fractions were analyzed by SDS-PAGE, N-terminal sequencing, and mass spectrometry. […]

The target in a further assay is human cathepsin H (Homo sapiens, UniProt P09668). As to the kind of experiment: cathepsin H inhibition assay, substrate L-Arg-β-naphthalamide. Conditions: Table 2; enzyme from human liver tissue, 50 μM substrate; read-out: hCat H Ki. As to the method:
as §1, with “assay. […]” for “assay.”
(§2) All assays contained 10% dimethyl sulfoxide. […] Product fluorescence (excitation at 360 nm; emission at 440 nm, (except cathepsin H which used excitation at 340 nm; emission at 420 nm)) was monitored with a PerSeptive Biosystems Cytofluor II fluorescence plate reader. […]
(§3) Potential inhibitors were evaluated using the progress curve method. […] For those compounds whose progress curves were linear, the enzymatic activity (RATE) was plotted against the concentration of test compound, including inhibitor concentration of zero ([I]=0), and the IC50 determined from a fit of equation 1 to the data, RATE=Vmax/(1+([I]/IC50)) (1) where Vmax is the best fit estimate of the maximal enzymatic activity. Ki values were calculated from IC50 values using equation 2 assuming a competitive model.

In a further assay the target is human cathepsin S (Homo sapiens, UniProt P25774). As to the kind of experiment: cathepsin S inhibition assay, fluorogenic substrate Cbz-Val-Val-Arg-AMC. Particulars: Table 2; human recombinant enzyme, 10 μM substrate; read-out: hCat S Ki. As to the method: as §1, with “assay. […]” for “assay.”
Sequence of human cathepsin S (P25774 115-331): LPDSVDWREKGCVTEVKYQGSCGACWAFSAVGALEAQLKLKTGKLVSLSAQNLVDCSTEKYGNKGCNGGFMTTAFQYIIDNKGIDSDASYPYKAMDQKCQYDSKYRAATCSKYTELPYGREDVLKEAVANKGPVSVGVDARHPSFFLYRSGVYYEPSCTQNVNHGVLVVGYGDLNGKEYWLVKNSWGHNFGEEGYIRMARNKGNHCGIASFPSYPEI
as §2, §3

Another assay has as its target human cathepsin V (Homo sapiens, UniProt O60911). As to the kind of experiment: cathepsin V inhibition assay, fluorogenic substrate Cbz-Phe-Arg-AMC. Conditions: Table 2; human recombinant enzyme, 2 μM substrate; read-out: hCat V Ki. Here is the method: as §1
All assays contained 10% dimethyl sulfoxide. […] All assays were conducted at 30° C. Product fluorescence (excitation at 360 nm; emission at 440 nm, (except cathepsin H which used excitation at 340 nm; emission at 420 nm)) was monitored with a PerSeptive Biosystems Cytofluor II fluorescence plate reader. Product progress curves were generated over 2.3 h monitoring the formation of 7-amino-4-methylcoumarin product (or β-naphthalamide for cathepsin H).
as §3

Sequence of human cathepsin H (P09668 116-335 limits assumed, other chains not shown): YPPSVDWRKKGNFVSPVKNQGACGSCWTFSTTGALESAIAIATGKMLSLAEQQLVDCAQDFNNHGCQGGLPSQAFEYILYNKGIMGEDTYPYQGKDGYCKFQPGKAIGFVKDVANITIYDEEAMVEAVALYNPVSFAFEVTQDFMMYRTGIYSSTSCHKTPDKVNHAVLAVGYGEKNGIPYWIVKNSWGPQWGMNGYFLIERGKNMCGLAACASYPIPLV
Sequence of human cathepsin V (O60911 114-334): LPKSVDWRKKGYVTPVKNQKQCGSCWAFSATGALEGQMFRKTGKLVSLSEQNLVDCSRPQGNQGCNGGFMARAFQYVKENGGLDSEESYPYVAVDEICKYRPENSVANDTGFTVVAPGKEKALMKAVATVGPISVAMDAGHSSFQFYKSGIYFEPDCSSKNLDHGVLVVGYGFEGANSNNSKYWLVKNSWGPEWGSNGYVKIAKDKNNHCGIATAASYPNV

What is called Ki is the dissociation constant of the complex between target and ligand, obtained from inhibition or displacement. With `CCCC[C@H](NC(=O)OC1(Cc2ccccc2)CCCC1)C(=O)C(=O)N[C@@H](C)C(=O)OCc1ccccc1` [Example 3, Benzyl (2S)-2-{[(3S)-3-({[(1-benzylcyclopentyl)oxy]carbonyl}amino)-2-oxoheptanoyl]amino}propanoate], the Ki on rat cathepsin K is over 1000 nM; on human cathepsin H, over 1000 nM; at human cathepsin S, 100 to 1000 nM; at human cathepsin V it was over 1000 nM.
With `CCCC[C@H](NC(=O)OCC1(Cc2ccc(F)cc2)CCC1)C(=O)C(=O)Nc1n[nH]c2cc(Cl)ccc12` [Example 15, [1-(4-fluorobenzyl)cyclobutyl]methyl(1S)-1-[[(6-chloro-1H-indazol-3-yl)amino](oxo)acetyl]pentylcarbamate], the Ki was in the range of 10 to 100 nM at rat cathepsin K, 100 to 1000 nM at human cathepsin H, 1 to 10 nM on human cathepsin S and 1 to 10 nM at human cathepsin V.
In the case of `CCCC[C@H](NC(=O)OC1(c2nc3ccccc3s2)CCCC1)C(=O)C(=O)Nc1ccn[nH]1` [Example 17, 1-(1,3-Benzothiazol-2-yl)cyclopentyl(1S)-1-[oxo(1H-pyrazol-3-ylamino)acetyl]pentylcarbamate], the Ki was 10 to 100 nM on rat cathepsin K, over 1000 nM at human cathepsin H, 10 to 100 nM at human cathepsin S and 10 to 100 nM at human cathepsin V.

The values above are taken from patent publication US7282512B2, “Cycloalkyl ketoamides derivatives useful as cathepsin K inhibitors” (SmithKline Beecham Corporation, priority 2002, dated 2007).
